{"source": "patent US5773459A", "about": "“Urea- and thiourea-type compounds” (Sugen, Inc., priority 1995, dated 1998)", "key": {"IGF-1R": {"target": "T1, IGF-1R (Homo sapiens, UniProt P08069)", "T1 construct": "expressed in transfected cells; host or cells: 3T3/IGF-1R", "T1 sequence (P08069 31-1367)": "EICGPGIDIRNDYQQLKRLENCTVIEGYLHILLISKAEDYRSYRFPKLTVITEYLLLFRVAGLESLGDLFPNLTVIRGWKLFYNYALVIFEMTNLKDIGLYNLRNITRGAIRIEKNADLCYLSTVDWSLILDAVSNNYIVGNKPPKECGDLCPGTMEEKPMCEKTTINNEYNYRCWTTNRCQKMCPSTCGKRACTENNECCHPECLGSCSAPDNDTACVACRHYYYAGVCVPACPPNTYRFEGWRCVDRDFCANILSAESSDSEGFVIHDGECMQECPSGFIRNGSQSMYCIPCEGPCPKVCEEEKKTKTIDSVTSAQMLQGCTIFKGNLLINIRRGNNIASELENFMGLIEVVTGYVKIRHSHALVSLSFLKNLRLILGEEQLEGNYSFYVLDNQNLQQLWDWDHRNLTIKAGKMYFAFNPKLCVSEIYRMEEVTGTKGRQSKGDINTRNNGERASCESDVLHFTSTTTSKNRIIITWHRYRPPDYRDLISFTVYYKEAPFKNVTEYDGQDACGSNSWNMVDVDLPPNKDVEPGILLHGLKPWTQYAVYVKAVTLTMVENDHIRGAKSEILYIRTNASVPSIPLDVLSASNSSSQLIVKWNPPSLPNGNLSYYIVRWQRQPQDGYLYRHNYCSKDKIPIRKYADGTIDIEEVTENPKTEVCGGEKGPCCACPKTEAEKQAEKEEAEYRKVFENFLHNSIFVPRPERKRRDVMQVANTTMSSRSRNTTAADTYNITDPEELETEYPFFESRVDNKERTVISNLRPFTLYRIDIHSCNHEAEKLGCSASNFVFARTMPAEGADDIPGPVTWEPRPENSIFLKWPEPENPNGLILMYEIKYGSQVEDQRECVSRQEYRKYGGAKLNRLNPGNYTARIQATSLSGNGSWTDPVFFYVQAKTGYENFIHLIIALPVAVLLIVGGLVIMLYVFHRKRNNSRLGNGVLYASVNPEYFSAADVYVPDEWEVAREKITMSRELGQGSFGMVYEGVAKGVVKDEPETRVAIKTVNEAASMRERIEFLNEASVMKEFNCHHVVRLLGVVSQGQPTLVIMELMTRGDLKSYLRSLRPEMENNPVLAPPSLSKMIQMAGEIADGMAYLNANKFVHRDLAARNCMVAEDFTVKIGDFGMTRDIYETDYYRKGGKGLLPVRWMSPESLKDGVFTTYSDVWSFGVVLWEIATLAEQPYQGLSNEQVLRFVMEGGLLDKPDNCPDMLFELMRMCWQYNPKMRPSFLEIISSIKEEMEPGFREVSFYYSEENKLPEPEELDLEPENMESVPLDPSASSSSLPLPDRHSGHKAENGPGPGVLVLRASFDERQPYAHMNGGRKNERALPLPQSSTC", "assay": "Cellular IGF-1 Receptor ELISA", "assay_type": "cell-based", "method": "Cellular IGF-1 Receptor ELISA (Version I)\n(1). The cell line used in this assay is 3T3/IGF-1R, a cell line which overexpresses IGF-1 Receptor.\n(2). 3T3/IGF-1 R is grown in an incubator with 5% CO2 at 37° C. The growth media is DMEM+10% FBS (heat inactivated)+2 mM L-Glutamine.\n(3). For ELISA plate coating, the anti-IGF-1 R antibody named 17-69 is used. Antibodies are purified by the Enzymology Lab, SUGEN, Inc.\n(10). Insulin-like growth factor-1 from Promega (Cat# G5111).\n(2). […] Incubate for 1 day then replace medium to serum-free medium (90/ul) and incubate in 5% CO2 and 37° C. overnight.\n2. ELISA Plate Coating and Blocking\n(2). Remove the coating solution, and replace with 100 ul Blocking Buffer, and shake for 30 minutes. Remove the blocking buffer and wash the plate just before adding lysate.\n(1). The drugs are tested in serum-free condition.\n(2). Dilute drug stock (in 100% DMSO) 1:10 with DMEM in 96-well poly-propylene plate, and transfer 10 ul/well of this solution to the cells to achieve final drug dilution 1:100, and final DMSO concentration of 1.0%. Incubate the cells in 5% CO2 at 37° C for 2 hours.\n(3). Prepare fresh cell lysis buffer (HNTG HNTG 2 ml EDTA 0.1 ml Na3VO4 0.1 ml Na4P207 0.1 ml H20 7.3 ml HNTG* 10 ml.\n(4). After drug incubation for two hours, transfer 10 ul/well of 200 nM IGF-1 Ligand in PBS to the cells (Final Conc=20 nM), and incubate at 5% CO2 at 37° C. for 10 minutes.\n(5). Remove media and add 100 ul/well HNTG* and shake for 10 minutes. Look at cells under microscope to see if they are adequately lysed.\n(6). Use a 12-channel pipette to scrape the cells from the plate, and homogenize the lysate by repeat aspiration and dispense. Transfer all the lysate to the antibody coated ELISA plate [V.2.(2)], and shake for 1 hour.\n(7). Remove the lysate, wash the plate, transfer anti-pTyr (1:3,000 with TBST) 100 ul/well, and shake for 30 minutes.\n(7). Remove anti-pTyr, wash the plate, transfer detection antibody (1:3,000 with TBST) 100 ul/well, and shake for 30 minutes.\n(8). Remove detection antibody, wash the plate, and transfer fresh ABTS/H2O2 (1.2 ul H2O2 to 10 ml ABTS) 100 ul/well to the plate to start color development.\n(9). Measure OD (410 nm) in Dynatec MR5000, which is connected to Ingres."}, "[1]": {"test_system": "chimeric receptor containing the EGFR extracellular domain and the HER2 intracellular kinase domain", "assay": "EGFR-HER2 chimeric receptor assay, HER2 kinase activity in whole NIH3T3 cells", "assay_type": "cell-based", "conditions": "NIH3T3 cells with EGFR-HER2 chimera, EGF stimulated; read-out: ELISA DATA: HER2 - (3T3)", "description": "The following examples illustrate the ability of the exemplary compounds to inhibit receptor tyrosine kinases, such as HER2 and/or EGFR. The following target cells were used for cellular kinase assays: NIH3T3 clone C7 (Honegger et al., supra) engineered to over-express human EGF receptor; NIH3T3 cells engineered to over-express a chimeric receptor containing the EGFR extracellular domain and the HER2 intracellular kinase domain; the human mammary carcinoma line BT474 (ATCC HTB2) expressing HER2; and the human glioblastoma line U1242 that expresses PDGFR-beta. Growth assays were carried out using human mammary epithelial SKBR3 (ATCC HTB30) cells (SKBR3 cells over-express HER2), SKOV3 (ATCC HTB77) human ovarian cancer cell line (SKOV3 cells also over-express HER2), A431 cells (A431 cells over-express EGFR) MCF7 human breast carcinoma cells, MCF7 cells overexpressing the HER2 kinase (MCF7-HER2), NIH3T3 cells, and NIH3T3 cells overexpressing the HER2 kinase (3T3-HER2.\nEGFR-HER2 Chimeric Recetor\nHER2 kinase activity (EGFR-3T3) in whole cells was measured as described below:\nThe materials and regeants are identical to these used in example 1, the EGFR whole cell kinase assay.\nA. Coat ELISA plates (Corning, 96 well, Cat. #25805-96) with 05-101 antibody at 0.5 μg per well in PBS, 100 μl final volume/well, and store overnight at 4.sunburst.C. Coated plates are good for up to 10 days when stored at 4° C.\nB. On day of use, remove coating buffer and replace with 100 μl blocking buffer (5% Carnation Instant Non-Fat Dry Milk in PBS). Incubate the plate, shaking, at room temperature (about 23.sunburst.C to 25.sunburst.C) for 30 minutes. Just prior to use, remove blocking buffer and wash plate 4 times with TBST buffer.\nA. An NIH3T3 cell line overexpressing a chimeric receptor containing the EGFR extracellular domain and […] can be used for this assay.\nB. Choose dishes having 80-90% confluence for the experiment. Trypsinize cells and stop reaction by adding 10% fetal bovine serum. Suspend cells in DMEM medium (10% CS DMEM medium) and centrifuge once at 1500 rpm, at room temperature for 5 minutes.\nC. Resuspend cells in seeding medium (DMEM, 0.5% bovine serum) , and count the cells using trypan blue. Viability above 90% is acceptable. Seed cells in DMEM medium (0.5% bovine serum) at a density of 10,000 cells per well, 100 μl per well, in a 96 well microtiter plate. Incubate seeded cells in 5% CO2 at 37.sunburst.C for about 40 hours.\nA. Check seeded cells for contamination using an inverted microscope. Dilute drug stock (10 mg/ml in DMSO) 1:10 in DMEM medium, then transfer 5 l to a […] well for a final drug dilution of 1:200 and a final DMSO concentration of 1%. Control wells receive DMSO alone. Incubate in 5% CO2 at 37° C. for two hours. […]"}, "[2]": {"conditions": "3T3/IGF-1R cells, IGF-1 stimulated, read-out: ELISA DATA: IGF-1R"}}, "note": "Like-named read-outs stand apart in the source and are kept apart here.", "data": [{"compound": "CC(C)S(=O)(=O)c1csc(NC(=O)Nc2cc(C(F)(F)F)cc(C(F)(F)F)c2)c1Cl", "note": "[Example Z2, N-[3-Chloro-4-(isopropylsulfonyl)thien-2-yl]-N'-(3,5-di-trifluoromethylphenyl)urea]", "values": [{"measurement": "IC50", "setting": "IGF-1R; [2]", "result": "> 100", "unit": "µM"}, {"measurement": "IC50", "setting": "[1]", "result": 31.7, "unit": "µM"}]}, {"compound": "N#Cc1ccc(NC(=S)Nc2ccc(S(=O)(=O)N3CCCCC3)cc2)cc1", "note": "[Example Z4, N-(4-Cyanophenyl)-N'-[4-[(piperid-1-yl)sulfonyl]phenyl]thiourea]", "values": [{"measurement": "IC50", "setting": "IGF-1R; [2]", "result": "> 100", "unit": "µM"}, {"measurement": "IC50", "setting": "[1]", "result": "> 100", "unit": "µM"}]}, {"compound": "O=C(Nc1ccc(SC(F)(F)F)cc1)Nc1ccc(Oc2ccc(Cl)cc2Cl)nc1", "note": "[Example Z3]", "values": [{"measurement": "IC50", "setting": "IGF-1R", "result": 16.5, "unit": "µM"}, {"measurement": "IC50", "setting": "[1]", "result": "> 100", "unit": "µM"}]}, {"compound": "CC(C)S(=O)(=O)c1csc(NC(=O)Nc2ccc(C(C)(C)C)cc2)c1Cl", "note": "[Example Z1, N-[3-Chloro-4-(isopropylsulfonyl)thien-2-yl]-N'-(4-t-butylphenyl)urea]", "values": [{"measurement": "IC50", "setting": "IGF-1R; [2]", "result": "> 100", "unit": "µM"}, {"measurement": "IC50", "setting": "[1]", "result": 10.3, "unit": "µM"}]}]}
